Experimental findings from ChEMBL document CHEMBL5236660, “Design, synthesis, and biological evaluation of quinoxalinone derivatives as potent BRD4 inhibitors” (Bioorg Med Chem, 2023) are described below.

Data set [1] in a line: Cytotoxicity against human GES1 cells assessed as reduction in cell viability incubated for 72 hrs by MTT assay. Type of data set: toxicity, cell-based.
The test system of another data set is HT-29. Put plainly: Antiproliferative activity against human HT-29 cells assessed as reduction in cell viability incubated for 72 hrs by MTT assay. Type of data set: functional, cell-based. As to conditions: HT-29, 72 h. On the technique in general: Formazan colour is commonly taken as a measure of viable cells.
Data set [2] deals with HepG2. Put plainly: Antiproliferative activity against human HepG2 cells assessed as reduction in cell viability incubated for 72 hrs by MTT assay. As to conditions: HepG2, 72 h. Type of data set: functional, cell-based.
For another data set, the system named is MCF7. Put plainly: Antiproliferative activity against human MCF7 cells assessed as reduction in cell viability incubated for 72 hrs by MTT assay. Type of data set: functional, cell-based. As to conditions: MCF7, 72 h.
Data set [3] addresses Bromodomain-containing protein 4 (Homo sapiens, UniProt O60885). Put plainly: Inhibition of BRD4 BD1 (unknown origin) by TR-FRET assay. Background: In TR-FRET formats the signal depends on donor and acceptor labels being close together.
Data set [4] relates to HepG2. Description: Induction of cell cycle arrest in human HepG2 cells assessed as accumulation at G0/G1 phase at 5 uM incubated for 24 hrs by flow cytometry (Rvb= 46.5%). Type of data set: functional. (In general: In flow cytometry, cells or beads pass a laser one at a time.)
The test system of data set [5] is HepG2. Put plainly: Induction of apoptosis in human HepG2 cells assessed as increase in p21 level at 2.5 uM incubated for 24 hrs by Western blot analysis. Type of data set: functional, cell-based.
For data set [6], the system named is HepG2. Description: Induction of cell cycle arrest in human HepG2 cells assessed as accumulation at G2/M phase at 5 uM incubated for 24 hrs by flow cytometry (Rvb= 14.05%). Type of data set: functional.
For data set [7], the system named is HepG2. Put plainly: Induction of apoptosis in human HepG2 cells assessed as early apoptotic cells at 5 uM incubated for 24 hrs by Annexin-V/PI staining based flow cytometry (Rvb=4.48%). The data set is classed as functional.
The test system of data set [8] is HepG2. Description: Inhibition of c-myc expression in human HepG2 cells at 5 uM incubated for 24 hrs by Western blot analysis. The data set is classed as functional, cell-based.
Data set [9] concerns HepG2. Description: Induction of apoptosis in human HepG2 cells assessed as increase in cleaved caspase-3 level at 2.5 uM incubated for 24 hrs by Western blot analysis. The data set is classed as functional, cell-based.
For data set [10], the system named is HepG2. Put plainly: Induction of apoptosis in human HepG2 cells assessed as late apoptotic cells at 5 uM incubated for 24 hrs by Annexin-V/PI staining based flow cytometry (Rvb=0.66%). Type of data set: functional.
The test system of data set [11] is HepG2. Put plainly: Induction of apoptosis in human HepG2 cells assessed as viable cells at 5 uM incubated for 24 hrs by Annexin-V/PI staining based flow cytometry (Rvb=94.0%). Type of data set: functional. The note with it: read-out: Activity.
Data set [12] has as its system HepG2. Description: Induction of apoptosis in human HepG2 cells assessed as total apoptotic cells at 5 uM incubated for 24 hrs by Annexin-V/PI staining based flow cytometry (Rvb=5.14%). Type of data set: functional.
Data set [13] deals with HepG2. Put plainly: Induction of cell cycle arrest in human HepG2 cells assessed as accumulation at S phase at 5 uM incubated for 24 hrs by flow cytometry (Rvb= 20.1%). Type of data set: functional.
The subject of data set [14] is HepG2. Description: Induction of apoptosis in human HepG2 cells assessed as necrotic cells at 5 uM incubated for 24 hrs by Annexin-V/PI staining based flow cytometry (Rvb=0.85%). The data set is classed as functional.

Each structure is given as a SMILES string. Activity calls are given as the source filed them. No cut-off for these calls is given here.

As a reminder, the IC50 is the midpoint of a concentration-inhibition curve.

As for `CCc1nc2cc(-c3cc(NS(C)(=O)=O)ccc3Oc3ccc(F)cc3F)ccc2[nH]c1=O`, in [1], the IC50 at 72 h worked out at 29.8 µM. Besides, the IC50 was determined as 16.5 µM in the data set on HT-29, 14.8 µM in the data set with HepG2 [2] and 1.93 µM in the data set with MCF7.
For the compound `Cc1nc2cc(-c3cc(CS(C)(=O)=O)ccc3Oc3ccc(F)cc3F)ccc2[nH]c1=O`, the IC50 at 72 h in data set [1] stood at 36.1 µM. Moreover, the half-inhibitory concentration (IC50) was 17.6 µM in the data set with HT-29, 22.9 µM in the data set with HepG2 [2], 0.753 µM in [3] and greater than 50 µM with MCF7.
Consider `COC(=O)c1ccc(Oc2ccc(F)cc2F)c(-c2ccc3[nH]c(=O)c(C)nc3c2)c1`, for which the IC50 in data set [3] turned out to be 4.22 µM.
On to `CCS(=O)(=O)Cc1ccc(Oc2ccc(F)cc2F)c(-c2ccc3[nH]c(=O)c(C)nc3c2)c1`, for which the IC50 at 72 h in data set [1] was found to be 45.8 µM. The IC50 in the data set with HT-29 is 25.1 µM; in the data set on HepG2 [2], greater than 50 µM; in data set [3], 0.777 µM; in the data set on MCF7 it was greater than 50 µM.
Regarding `Cc1nc2cc(-c3cc(NS(C)(=O)=O)ccc3Oc3ccc(F)cc3F)ccc2[nH]c1=O`, in data set [1], the IC50 at 72 h is 33.5 µM. In addition, the values for the IC50 with HT-29, in the data set with HepG2 [2] and in the data set on MCF7 were 6.86 µM, 16.1 µM and 7.44 µM, respectively.
In [3], `Cc1nc2cc(-c3cc(NS(C)(=O)=O)ccc3Oc3ccc(F)cc3Cl)ccc2[nH]c1=O` had an IC50 of 1.56 µM.
Still for that read-out and setting: the same measure for `Cc1ccccc1Oc1ccc(NS(C)(=O)=O)cc1-c1ccc2[nH]c(=O)c(C)nc2c1`: 2.12 µM.
For `CCS(=O)(=O)Nc1ccc(Oc2ccc(F)cc2F)c(-c2cn(C)c(=O)c3[nH]ccc23)c1` [MIVEBRESIB], the Activity in the data set on HepG2 [4] was 56.2%; in the data set with HepG2 [6], 19.6%; in the data set with HepG2 [7], 32%; with HepG2 [10] it was 2.81%; in the data set on HepG2 [12], 34.81%; in the data set with HepG2 [13] it was 13.1%. Moreover, in the data set on HepG2 [14], the Activity was determined as 1.63%. In addition, the outcome in the data set on HepG2 [5] and in the data set with HepG2 [9] was Active. The IC50 at 72 h in [1] was 4.31 µM. For the same compound, the inhibition entry with HepG2 [8] was “Active”. In addition, the IC50 in the data set with HT-29 turned out to be 1.84 µM; in the data set with HepG2 [2], 4.29 µM; in [3], 0.0007 µM; with MCF7, 12.3 µM. Besides, the viability at 5 µM in the data set with HepG2 [11] is 63.6%.
For `Cc1nc2cc(-c3cc(NS(C)(=O)=O)ccc3Oc3ccc(Cl)cc3)ccc2[nH]c1=O`, in data set [1], the IC50 at 72 h came out at 18.1 µM. Moreover, the IC50 is 8.09 µM with HT-29, 11.3 µM in the data set with HepG2 [2], 0.341 µM in [3] and 4.64 µM with MCF7.
For the compound `Cc1nc2cc(-c3cc(C(=O)N4CCOCC4)ccc3Oc3ccc(F)cc3F)ccc2[nH]c1=O`, in data set [3], the IC50 turned out to be 1.48 µM.
Still for that read-out and setting: the same measure for `Cc1nc2cc(-c3cc(C(=O)N4CCN(C)CC4)ccc3Oc3ccc(F)cc3F)ccc2[nH]c1=O`: 1.31 µM; for `COc1ccccc1Oc1ccc(NS(C)(=O)=O)cc1-c1ccc2[nH]c(=O)c(C)nc2c1`: 2.83 µM.
With `Cc1nc2cc(-c3cc(C(=O)NCCO)ccc3Oc3ccc(F)cc3F)ccc2[nH]c1=O`, the IC50 at 72 h in [1] was greater than 100 µM. Moreover, the IC50 is 15.1 µM with HT-29, 17.9 µM in the data set with HepG2 [2], 0.621 µM in data set [3] and greater than 50 µM in the data set with MCF7.
In the same order, the values of `CCS(=O)(=O)Nc1ccc(Oc2ccc(F)cc2F)c(-c2ccc3[nH]c(=O)c(C)nc3c2)c1` are 20.2 µM, 16.8 µM, 5.41 µM, 0.0483 µM and 9.78 µM.
For `Cc1nc2cc(-c3cc(C(C)O)ccc3Oc3ccc(F)cc3F)ccc2[nH]c1=O` (stereo not given), the IC50 at 72 h in data set [1] came out at 30.8 µM. For the same compound, the IC50 in the data set with HT-29 amounted to 20.2 µM; in the data set with HepG2 [2] it was 33.5 µM; in data set [3], 0.406 µM; in the data set with MCF7, 34.5 µM.
`Cc1nc2cc(-c3cc(NS(C)(=O)=O)ccc3Oc3ccccc3C(F)(F)F)ccc2[nH]c1=O`: half-maximal inhibition in data set [3] (IC50) was put at 2.65 µM.
Turning to `Cc1nc2cc(-c3cc(C=O)ccc3Oc3ccc(F)cc3F)ccc2[nH]c1=O`, the midpoint of inhibition in data set [3], the IC50, lay at 2.51 µM.
Take `Cc1nc2cc(-c3cc(NS(C)(=O)=O)ccc3Oc3ccc(F)cc3)ccc2[nH]c1=O`: the IC50 at 72 h in [1] is 36.5 µM. Further, the IC50 in the data set on HT-29 was 6.4 µM; in the data set with HepG2 [2] it was 11.3 µM; in data set [3], 0.103 µM; with MCF7, 3.81 µM.
As for `Cc1nc2cc(-c3cc(C(C)(C)O)ccc3Oc3ccc(F)cc3F)ccc2[nH]c1=O`, the IC50 in [3] amounted to 1.13 µM.
Same read-out and setting: the same measure for `COc1cc(Cl)ccc1Oc1ccc(NS(C)(=O)=O)cc1-c1ccc2[nH]c(=O)c(C)nc2c1`: 2.33 µM.
With `Cc1nc2cc(-c3cc(S(C)(=O)=O)ccc3Oc3ccc(F)cc3F)ccc2[nH]c1=O`, in data set [3], the IC50 amounted to 3.97 µM.
